Data: paper PMC5609037, “Selective inhibition of PfA-M1, over PfA-M17, by an amino-benzosuberone derivative blocks malaria parasites development in vitro and in vivo” (Malaria Journal, 2017)

Key:
[1] = molecular target: T1, PfA-M17 (P. falciparum leucyl aminopeptidase) (Plasmodium falciparum, UniProt Q8IL11); experiment: Leu-pNA hydrolysis at […] nm, Ki by Dixon plots; assay type: biochemical
T1 construct: gene LAP; residues 84–605, N-terminal hexahistidine tag, recombinant from E. coli

[2] = molecular target: T2, PfA-M1 (P. falciparum alanyl aminopeptidase, M1 family aminopeptidase) (Plasmodium falciparum, UniProt O96935); experiment: Ala-pNA hydrolysis at […] nm, Ki by Dixon plots; assay type: biochemical
T2 construct: gene M1AAP; residues 192–1085, N-terminal hexahistidine tag, recombinant from E. coli
T2 sequence (O96935 192-1085): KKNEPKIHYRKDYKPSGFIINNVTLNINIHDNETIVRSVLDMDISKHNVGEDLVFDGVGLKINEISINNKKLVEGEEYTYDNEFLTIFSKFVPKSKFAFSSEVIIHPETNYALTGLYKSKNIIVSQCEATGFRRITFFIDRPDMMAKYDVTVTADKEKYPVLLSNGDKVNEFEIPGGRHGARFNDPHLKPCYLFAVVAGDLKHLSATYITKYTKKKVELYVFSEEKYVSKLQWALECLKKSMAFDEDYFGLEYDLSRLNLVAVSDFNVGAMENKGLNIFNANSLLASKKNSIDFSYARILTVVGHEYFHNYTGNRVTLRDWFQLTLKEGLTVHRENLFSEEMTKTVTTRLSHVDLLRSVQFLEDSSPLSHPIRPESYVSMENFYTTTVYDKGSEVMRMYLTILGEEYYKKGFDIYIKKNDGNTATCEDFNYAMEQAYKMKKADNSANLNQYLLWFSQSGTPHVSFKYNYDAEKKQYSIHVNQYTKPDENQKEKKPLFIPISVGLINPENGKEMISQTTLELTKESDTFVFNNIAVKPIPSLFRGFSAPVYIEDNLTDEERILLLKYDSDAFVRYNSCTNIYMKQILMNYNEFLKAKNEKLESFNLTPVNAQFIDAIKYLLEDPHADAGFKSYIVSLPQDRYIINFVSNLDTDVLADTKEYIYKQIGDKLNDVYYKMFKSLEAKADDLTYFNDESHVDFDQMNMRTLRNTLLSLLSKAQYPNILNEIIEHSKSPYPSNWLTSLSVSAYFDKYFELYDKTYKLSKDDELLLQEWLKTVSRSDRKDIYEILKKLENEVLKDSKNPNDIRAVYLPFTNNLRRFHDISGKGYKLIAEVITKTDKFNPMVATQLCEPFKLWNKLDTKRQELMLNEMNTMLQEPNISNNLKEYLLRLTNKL

T1 sequence (Q8IL11 84-605): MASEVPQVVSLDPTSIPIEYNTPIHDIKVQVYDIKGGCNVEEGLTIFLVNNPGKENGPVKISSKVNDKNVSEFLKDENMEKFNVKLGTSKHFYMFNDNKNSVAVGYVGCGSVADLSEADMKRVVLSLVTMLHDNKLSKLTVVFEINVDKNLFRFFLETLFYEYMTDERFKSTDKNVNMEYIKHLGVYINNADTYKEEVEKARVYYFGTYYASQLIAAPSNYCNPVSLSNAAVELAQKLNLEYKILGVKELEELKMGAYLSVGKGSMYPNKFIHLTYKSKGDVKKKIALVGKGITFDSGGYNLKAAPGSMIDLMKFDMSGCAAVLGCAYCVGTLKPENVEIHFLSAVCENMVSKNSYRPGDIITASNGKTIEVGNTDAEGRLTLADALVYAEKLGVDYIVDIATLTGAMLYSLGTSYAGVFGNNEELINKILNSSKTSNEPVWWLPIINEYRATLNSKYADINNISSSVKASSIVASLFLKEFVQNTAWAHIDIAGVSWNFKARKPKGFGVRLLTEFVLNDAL

## CC(C)C[C@H](NC(=O)[C@@H](O)[C@H](N)Cc1ccccc1)C(=O)O [bestatin]
[1]
  Ki: 400 nM
[2]
  Ki: 100 nM
